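How tested: cells in 96-well plates exposed to compound for 48 hours at five concentrations. Here, GI50 denotes the concentration required for 50% inhibition of growth. Definition used: TGI = concentration required for complete inhibition of growth.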

Some test systems named below: A498 renal; HCC-2998 colon; HS 578T breast; K-562 leukemia; OVCAR-3 ovarian; RPMI-8226 leukemia; SNB-19 CNS; SW-620 colon; UO-31 renal; HL-60(TB) leukemia.
Holding throughout (test): growth of human tumour cells (NCI), 48 h

Take `CCc1c(O)c2c(c(O)c1C(C)=O)C(=O)c1c(cc(O)c(C(=O)O)c1C(=O)O)C2=O`: the TGI with A498 renal, with HCC-2998 colon, with HS 578T breast, in the experiment with K-562 leukemia, with OVCAR-3 ovarian and in the experiment on RPMI-8226 leukemia was greater than 100 µM throughout. Moreover, the TGI with SNB-19 CNS, in the experiment with SW-620 colon and in the experiment on UO-31 renal was greater than 100 µM throughout.
Regarding `CCCCCCNc1nc(N2CCOCC2)c2[nH]c(NCCCCCC)nc2n1`, the GI50 in the experiment on A498 renal was 1.11 µM; in the experiment on HCC-2998 colon it was 1.7 µM; with HS 578T breast, 1.37 µM; in the experiment with OVCAR-3 ovarian, 1.76 µM; in the experiment with RPMI-8226 leukemia, 1.91 µM; in the experiment on SNB-19 CNS, 1.8 µM. The GI50 was 1.44 µM in the experiment on SW-620 colon and 1.36 µM in the experiment on UO-31 renal. Also, the TGI with A498 renal is 2.31 µM; in the experiment on HCC-2998 colon, 3.07 µM; in the experiment on HS 578T breast, 3.16 µM; in the experiment with OVCAR-3 ovarian it was 3.14 µM; with RPMI-8226 leukemia, 5.42 µM; in the experiment with SNB-19 CNS, 3.41 µM. The TGI in the experiment on SW-620 colon is 2.76 µM; with UO-31 renal, 2.84 µM.
For the compound `CCCCCCCCCCCCCC(=O)C(C)N` (stereo unspecified), the GI50 in the experiment with HCC-2998 colon is 2.87 µM; with HL-60(TB) leukemia it was 2.65 µM; in the experiment with HS 578T breast, 9.16 µM; with K-562 leukemia, 2.41 µM; with OVCAR-3 ovarian, 14.1 µM; in the experiment on RPMI-8226 leukemia, 6.26 µM. Moreover, the GI50 in the experiment on SNB-19 CNS is 13.5 µM; in the experiment with SW-620 colon it was 11.6 µM; with UO-31 renal, 10.5 µM. The TGI in the experiment with HCC-2998 colon was determined as 8.2 µM; with HL-60(TB) leukemia it was 10.4 µM; in the experiment on HS 578T breast it was 29.1 µM; in the experiment on K-562 leukemia it was 11.1 µM; in the experiment with OVCAR-3 ovarian, 28.3 µM; with RPMI-8226 leukemia it was 23.7 µM. The TGI was determined as 30.7 µM with SNB-19 CNS, 27.2 µM in the experiment on SW-620 colon and 24.2 µM with UO-31 renal.
As to `[C-]#[N+][C@]12C(=O)[C@H](CCC1(C)C)C(C)(C)[C@H]1C(=O)N(C)c3cccc2c31`, the GI50 with A498 renal was 0.81 µM; in the experiment with HCC-2998 colon it was greater than 100 µM; in the experiment on HL-60(TB) leukemia, 4.07 µM; with HS 578T breast, 68.5 µM; in the experiment on K-562 leukemia it was 4.8 µM; in the experiment on OVCAR-3 ovarian, 4.13 µM. For the same compound, the GI50 with RPMI-8226 leukemia was 13.1 µM; in the experiment with SNB-19 CNS, 70 µM; in the experiment with SW-620 colon, 18.6 µM. In addition, the TGI with A498 renal is 74.2 µM; in the experiment on HCC-2998 colon it was greater than 100 µM; in the experiment with HL-60(TB) leukemia it was greater than 100 µM; with HS 578T breast, greater than 100 µM; with K-562 leukemia it was greater than 100 µM; in the experiment on OVCAR-3 ovarian, greater than 100 µM. In addition, the TGI in the experiment on RPMI-8226 leukemia, with SNB-19 CNS and in the experiment with SW-620 colon was greater than 100 µM each time.
Regarding `C#Cc1cccc(Oc2ccc(NC(=O)CCl)cc2)c1`, the GI50 with HCC-2998 colon was greater than 82.5 µM; in the experiment with HL-60(TB) leukemia, 63.4 µM; in the experiment on HS 578T breast, greater than 82.5 µM; in the experiment with K-562 leukemia, 34.4 µM; in the experiment on OVCAR-3 ovarian it was greater than 82.5 µM; in the experiment on RPMI-8226 leukemia it was greater than 82.5 µM. For the same compound, the GI50 was greater than 82.5 µM in the experiment with SNB-19 CNS, 24.8 µM in the experiment on SW-620 colon and greater than 82.5 µM with UO-31 renal. Further, the TGI with HCC-2998 colon, with HL-60(TB) leukemia, with HS 578T breast, in the experiment on K-562 leukemia, in the experiment on OVCAR-3 ovarian and in the experiment with RPMI-8226 leukemia was greater than 82.5 µM in each case. The TGI in the experiment with SNB-19 CNS, in the experiment with SW-620 colon and in the experiment on UO-31 renal was greater than 82.5 µM throughout.
For `N#C/C(N)=C(\C#N)N=Cc1csc2ccccc12`, the GI50 with HCC-2998 colon is 90.4 µM; with HL-60(TB) leukemia, greater than 100 µM; in the experiment on HS 578T breast, 13.1 µM; in the experiment with K-562 leukemia, 95.5 µM; with OVCAR-3 ovarian, 19.1 µM; in the experiment with RPMI-8226 leukemia, greater than 100 µM. Further, the GI50 with SNB-19 CNS is 27.7 µM; in the experiment with SW-620 colon, greater than 100 µM; with UO-31 renal, 91.2 µM. Moreover, the TGI was greater than 100 µM in the experiment on HCC-2998 colon; greater than 100 µM in the experiment with HL-60(TB) leukemia; 58.9 µM in the experiment with HS 578T breast; greater than 100 µM in the experiment on K-562 leukemia; 47.8 µM in the experiment with OVCAR-3 ovarian; greater than 100 µM with RPMI-8226 leukemia. Further, the figures for the TGI with SNB-19 CNS, with SW-620 colon and in the experiment on UO-31 renal were 71.9 µM, greater than 100 µM and greater than 100 µM, respectively.
As to `CNC(=O)OC1C(O[C@H]2C[C@H]3[C@@H]4CC=C5C[C@@H](O)CC[C@]5(C)[C@H]4CC[C@]3(C)[C@H]2[C@H](C)C(=O)CCC(C)C)OCC(O)C1OC1OCC(O)C(O)C1OC(=O)c1ccc(OC)cc1` (stereo partly specified), the GI50 was 0.00446 µM in the experiment with A498 renal; 0.693 µM in the experiment on HCC-2998 colon; less than 0.00275 µM with HS 578T breast; 0.0139 µM in the experiment on K-562 leukemia; 1.03 µM in the experiment with OVCAR-3 ovarian; less than 0.00275 µM with RPMI-8226 leukemia. The GI50 with SNB-19 CNS is 0.0204 µM; in the experiment on SW-620 colon, 0.0122 µM; in the experiment with UO-31 renal, 0.0766 µM. Moreover, the TGI amounted to 0.0205 µM in the experiment on A498 renal; 5.25 µM with HCC-2998 colon; 0.0584 µM in the experiment on HS 578T breast; 0.554 µM with K-562 leukemia; 6.1 µM in the experiment on OVCAR-3 ovarian; 0.0112 µM in the experiment with RPMI-8226 leukemia. The values for the TGI with SNB-19 CNS, in the experiment with SW-620 colon and in the experiment with UO-31 renal were 3.89 µM, 0.383 µM and 0.241 µM, respectively.
For `O=C(NNS(=O)(=O)c1ccc(F)cc1)c1cccnc1Nc1ccc(Cl)cc1Cl`, the GI50 in the experiment with A498 renal was 17.3 µM; with HCC-2998 colon, 30 µM; in the experiment with HL-60(TB) leukemia, 25.2 µM; with HS 578T breast it was 27.9 µM; in the experiment on K-562 leukemia it was 20.1 µM; with OVCAR-3 ovarian, 29.7 µM. The GI50 in the experiment on SNB-19 CNS was 29.2 µM; in the experiment on SW-620 colon, 29.1 µM. The TGI with A498 renal was 36.5 µM; in the experiment with HCC-2998 colon, greater than 100 µM; in the experiment with HL-60(TB) leukemia it was 62.3 µM; in the experiment with HS 578T breast, greater than 100 µM; with K-562 leukemia, 83.2 µM; in the experiment with OVCAR-3 ovarian, 94.5 µM. The TGI in the experiment with SNB-19 CNS and in the experiment with SW-620 colon was greater than 100 µM throughout.

The record behind these values is PubChem BioAssay (NCI).
